Values quoted from earlier work as cited in US20150224078A1, “Methods for the Treatment of Lung Diseases with Mast Cell Stabilizers” (Patara Pharma, LLC, priority 2014, published 2015).

Settings: Richards et al, 1987

oral bioavailability: about 1%
Structure (SMILES): O=C(O)c1cc(=O)c2c(OCC(O)COc3cccc4oc(C(=O)O)cc(=O)c34)cccc2o1 [cromolyn sodium]
